Measured values: article PMC11901902, “Design, Synthesis, and Cytotoxicity Evaluation of Novel Indolin-2-One Based Molecules on Hepatocellular Carcinoma HepG2 Cells as Protein Kinase Inhibitors” (Molecules, 2025)
Read-outs that look alike come from different tables or passages of the source.

Columns and labels:
[1] = system: HepG-2 cells; assay: MTT cytotoxicity assay on HepG-2 cells; type: cell-based, human; conditions: Homo sapiens, HepG2; for viability at 1.25 µM: HepG-2, 1.25 µM; for viability at 1.25 µM / viability at 2.5 µM / viability at 5 µM / viability at 10 µM / viability at 20 µM / viability at 40 µM / viability at 80 µM / viability at 160 µM: Table S1; for viability at 2.5 µM: HepG-2, 2.5 µM; for viability at 5 µM: HepG-2, 5 µM; for viability at 10 µM: HepG-2, 10 µM; for viability at 20 µM: HepG-2, 20 µM; for viability at 40 µM: HepG-2, 40 µM; for viability at 80 µM: HepG-2, 80 µM; for viability at 160 µM: HepG-2, 160 µM; for IC50: MTT, 24 h treatment, mean of three experiments ± SEM
Experimental: (§1) Cytotoxic activity of the synthesized compounds was evaluated against HepG-2 and MCF-7 cancer cell lines using the MTT assay. The tested cell lines were obtained from the American Type Culture Collection (ATCC, […], USA) through the Tissue Culture Unit, The Egyptian Organization for Biological Products and Vaccines (Vacsera, Giza, Egypt). Indirubin, chemicals, and solvents were purchased from Sigma-Aldrich (St. Louis, MO, USA). The cells were grown on RPMI-1640 medium supplemented with 10% inactivated fetal calf serum and 50 µg/mL gentamycin. The cells were maintained at 37 °C in a humidified atmosphere with 5% CO2 and were sub-cultured two to three times per week. For antitumor assays, the tumor cell lines were suspended in the medium at concentration 5 × 10^4 cell/well in Corning® 96-well tissue culture plates (Corning, Corning, NY, USA), then incubated for 24 h. The tested molecules were then added to 96-well plates (six replicates) to achieve six concentrations for each compound. Six vehicle controls with media or 0.5% DMSO were run for each 96-well plate as a control. After incubating for 24 h, the numbers of viable cells were determined by the MTT test. Briefly, the media was removed from the 96 well plate and replaced with 100 µL of fresh culture RPMI 1640 medium without phenol red then 10 µL of the 12 mM MTT stock solution (5 mg of MTT in 1 mL of PBS) to each well including the untreated controls. The 96-well plates were then incubated at 37 °C and 5% CO2 for 4 h. An 85 µL aliquot of the media was removed from the wells, and 50 µL of DMSO was added to each well, mixed thoroughly with the pipette, and incubated at 37 °C for 10 min. Then, the optical density was measured at 590 nm with the microplate reader (SunRise, TECAN, Inc., Morrisville, NC, USA) to determine the number of viable cells, and the percentage of viability was calculated as […], where ODt is the mean optical density of wells treated with the tested sample and ODc is the mean optical density of untreated cells. The relation between surviving cells and drug concentration was plotted to obtain the survival curve of each tumor cell line after treatment with the specified compound. […] Each concentration was repeated four times.

[2] = system: MCF-7 cells; assay: MTT cytotoxicity assay on MCF-7 cells; type: cell-based; conditions: Homo sapiens, MCF7; for viability at 1.25 µM: MCF-7, 1.25 µM; for viability at 2.5 µM: MCF-7, 2.5 µM; for viability at 5 µM: MCF-7, 5 µM; for viability at 10 µM: MCF-7, 10 µM; for viability at 20 µM: MCF-7, 20 µM; for viability at 40 µM: MCF-7, 40 µM; for viability at 80 µM: MCF-7, 80 µM; for viability at 160 µM: MCF-7, 160 µM
Experimental: as §1

[3] = MTT, 24 h treatment, mean of three experiments ± SEM, read-out: IC50 (µM) MCF-7

| Compound | viability at 1.25 µM [1] [%] | viability at 2.5 µM [1] [%] | viability at 5 µM [1] [%] | viability at 10 µM [1] [%] | viability at 20 µM [1] [%] | viability at 40 µM [1] [%] | viability at 80 µM [1] [%] | viability at 160 µM [1] [%] | IC50 [1] [µM] | viability at 1.25 µM ([2]; Table S2) [%] | viability at 2.5 µM ([2]; Table S2) [%] | viability at 5 µM ([2]; Table S2) [%] | viability at 10 µM ([2]; Table S2) [%] | viability at 20 µM ([2]; Table S2) [%] | viability at 40 µM ([2]; Table S2) [%] | viability at 80 µM ([2]; Table S2) [%] | viability at 160 µM ([2]; Table S2) [%] | IC50 [2, 3] [µM] | IC50 ([2]; Table S2, read-out: IC50 (µM) on MCF-7 cell line) [µM] |
| --- | --- | --- | --- | --- | --- | --- | --- | --- | --- | --- | --- | --- | --- | --- | --- | --- | --- | --- | --- |
| O=C1Nc2ccccc2C1=Nc1ccc2nc[nH]c(=O)c2c1 [Compound 7, 6-(2-Oxo-1,2-dihydro-indol-3-ylideneamino)-3H-quinazolin-4-one] | 83.4 ± 6.9 | 70.9 ± 6 | 61.9 ± 5.1 | 49.3 ± 2.2 | 35.9 ± 2.1 | 26.5 ± 1.9 | 9.4 ± 0.4 | 7.2 ± 0.2 | 10.8 ± 0.92 | 101 ± 7.2 | 93.7 ± 8.2 | 87.6 ± 6.1 | 78.2 ± 5.3 | 66.3 ± 4 | 53.1 ± 2 | 45.2 ± 1.4 | 36.8 ± 1.2 | 21.9 ± 1.83 | – |
| O=C1Nc2ccc(F)cc2/C1=N/c1ccc2nc[nH]c(=O)c2c1 [Compound 8, 6-(5-Flouro-2-oxo-1,2-dihydro-indol-3-ylideneamino)-3H-quinazolin-4-one] | 88 ± 7.6 | 71.2 ± 6.1 | 62.3 ± 4.3 | 48.2 ± 1.8 | 33.6 ± 0.13 | 17.5 | 15.1 ± 1.4 | 9.3 ± 1.1 | 7.54 ± 0.53 | 104 ± 4.9 | 94.2 ± 4 | 87.9 ± 3.9 | 75.7 ± 3.2 | 57.1 ± 2.4 | 43.9 ± 2 | 29.7 ± 1.4 | 11.5 ± 0.7 | 52.8 ± 3.21 | – |
| O=C1Nc2ccc(Br)cc2C1=Nc1ccc2nc[nH]c(=O)c2c1 [Compound 10, 6-(5-Bromo-2-oxo-1,2-dihydro-indol-3-ylideneamino)-3H-quinazolin-4-one] | 91.2 ± 7 | 87.9 ± 8.1 | 83 ± 5.2 | 71.4 ± 4.5 | 58.7 ± 4.3 | 35.8 ± 2.1 | 19.4 ± 1.2 | 14.2 ± 0.9 | 28.1 ± 2.08 | 98.3 ± 7.4 | 99.1 ± 6.9 | 87.2 ± 5.7 | 76.5 ± 4 | 65.2 ± 2.8 | 55.4 ± 2.6 | 41.2 ± 2.8 | 25.4 ± 2.6 | > 100 | 112 ± 11.2 |
| O=C1Nc2ccc([N+](=O)[O-])cc2C1=Nc1ccc2nc[nH]c(=O)c2c1 [Compound 11, 6-(5-Nitro-2-oxo-1,2-dihydro-indol-3-ylideneamino)-3H-quinazolin-4-one] | 99.2 ± 6.9 | 91.3 ± 7.9 | 89.4 ± 6.4 | 79.5 ± 5.5 | 67.1 ± 3.8 | 54.6 ± 1.9 | 44.1 ± 1.3 | 37.6 ± 1.1 | 20.9 ± 1.54 | 116 ± 6.4 | 97.5 ± 7 | 90.1 ± 6.4 | 86 ± 5.5 | 63.9 ± 3.8 | 39.1 ± 2.9 | 25.6 ± 1.3 | 11.2 ± 0.4 | 72.4 ± 6.51 | – |
| Cc1ccc2c(c1)C(=Nc1ccc3nc[nH]c(=O)c3c1)C(=O)N2 [Compound 12, 6-(5-Methyl-2-oxo-1,2-dihydro-indol-3-ylideneamino)-3H-quinazolin-4-one] | 96.4 ± 6.9 | 84.9 ± 6.1 | 81.8 ± 5.4 | 69.1 ± 4.1 | 58.9 ± 2.2 | 49.7 ± 1.7 | 36.3 ± 0.5 | 33.9 ± 1.2 | 31.9 ± 2.12 | 104 ± 5.4 | 91.4 ± 4.1 | 80 ± 4.2 | 69.2 ± 2.7 | 58.5 ± 1.5 | 30.1 ± 1.2 | 21.5 ± 1.5 | 9.15 ± 1.2 | 46.2 ± 2.47 | – |
